Consider 10 compounds from patent US7470708B2, “Acidic quinoline derivatives and their use for the prevention and/or treatment of hyperglycaemia-related pathologies” (Merck Patent Gesellschaft mit Beschraenkter Haftung, priority 2003, dated 2008).

One data set deals with insulin secretion. Briefly: Insulin secretion test. Type of data set: cell-based. The settings on record: concentration of test compound 10^−5 M. The source says:
According to the method described in Endocrinology, 1992 vol. 130 (1) pp. 167-178
• C corresponds to the concentration of test compound according to the invention INS. SEC. corresponds to the percentage of insulin secretion.

The next data set has as its system N0STZ rats. Briefly: Antidiabetic activity in N0STZ rats (non-insulin-dependent diabetes induced by neonatal steptozotocin). Format: in vivo. The settings on record: N0 STZ rat, oral, percentage change in glycaemia on D4 relative to D0. The protocol: Study of the Antidiabetic Activity in N0STZ Rats
The antidiabetic activity of the compounds of the formula (I) via the oral route, on an experimental model of non-insulin-dependent diabetes induced in rats by means of steptozotocin, was determined as follows.
The model of non-insulin-dependent diabetes is obtained in the rats by means of a neonatal injection (on the day of birth) of steptozotocin.
The diabetic rats used are eight weeks old. The animals are housed, from the day of birth to the day of the experiment, in an animal house at a regulated temperature of 21 to 22° C. and subjected to a fixed cycle of light (from 7 a.m. to 7 p.m.) and darkness (from 7p.m. to 7 a.m.). Their food consisted of a maintenance diet, and water and food were given “ad libitum”, with the exception of fasting two hours before the tests, during which period the food is removed (post-absorptive state).
The rats are treated orally for one (D1) or four (D4) days with the test product. Two hours after the final administration of the product and 30 minutes after anaesthetizing the animals with pentobarbital sodium (Nembutal®), a 300 μl blood sample is taken from the end of the tail.
By way of example, the results obtained are collated in the table below.

`O=C(O)c1cc(OCc2ccc(Br)cc2F)c2cc(F)ccc2n1` [Compound 2, 4-(4-Bromo-2-fluorobenzyloxy)-6-fluoroquinoline-2-carboxylic acid] came in with a melting point of more than 250 °C.
Turning to `COC(=O)c1cc(OCCCCl)c2cc(F)ccc2n1` [Compound 64, methyl 4-(3-chloropropoxy)-6-fluoroquinoline-2-carboxylate], the “INS. SEC. (percentage of insulin secretion)” value with insulin secretion is 179%.
Compound `CC(C)=CCOc1cc(C(=O)O)nc2ccc(F)cc12` [Compound 6, 6-Fluoro-4-(3-methylbut-2-enyloxy)quinoline-2-carboxylic acid] returned a melting point of more than 250 °C. Moreover, the “Percentage decrease in glycaemia at 200 mg/kg” value (from here on “Percentage decrease”) in the data set on N0STZ rats is recorded as −10%.
Regarding `COC(=O)c1cc(OCC(C)CCl)c2cc(F)ccc2n1` (centres unmarked) [Compound 65, methyl 4-(3-chloro-2-methylpropoxy)-6-fluoroquinoline-2-carboxylate], the “INS. SEC. (percentage of insulin secretion)” value in the data set with insulin secretion was determined as 161%.
Same read-out and setting: in the case of `COc1ccc(C(=O)COc2cc(C(=O)O)nc3ccc(F)cc23)cc1OC` [Compound 63, 4-[2-(3,4-dimethoxyphenyl)-2-oxoethoxy]-6-fluoroquinoline-2-carboxylic acid] it was 192%.
For the compound `O=C(O)c1cc(OCc2nc3ccccc3s2)c2cc(F)ccc2n1` [Compound 3, 4-(Benzothiazol-2-ylmethoxy)-6-fluoroquinoline-2-carboxylic acid], the melting point was more than 250 °C.
In turn, `CCOc1cc(C(=O)O)nc2ccc(F)cc12` [Compound 1, 4-Ethoxy-6-fluoroquinoline-2-carboxylic acid] had a melting point of 205 °C. Also, the “INS. SEC. (percentage of insulin secretion)” value in the data set with insulin secretion was 172%. In addition, in the data set with N0STZ rats, the “Percentage decrease” value is listed as −27%.
As for `N#Cc1ccccc1-c1ccc(COc2cc(C(=O)O)nc3ccc(F)cc23)cc1` [Compound 7, 4-(2′-Cyanobiphenyl-4-ylmethoxy)-6-fluoroquinoline-2-carboxylic acid], the melting point was more than 250 °C.
Compound `O=C(O)c1cc(OC/C=C/COc2cc(C(=O)O)nc3ccc(F)cc23)c2cc(F)ccc2n1` [Compound 5, 4-({(E)-4-[(2-Carboxy-6-fluoro-4-quinolinyl)oxy]-2-butenyl}oxy)-6-fluoro-2-quinolinecarboxylic acid] came in with a melting point of more than 250 °C. In the data set on N0STZ rats, the “Percentage decrease” value is listed as −17%.
Compound `COc1ccc2nc(C(=O)[O-])cc(OCc3ccc(Br)cc3F)c2c1.[Na+]` [Compound 4, 4-(4-Bromo-2-fluorobenzyloxy)-6-methoxyquinoline-2-carboxylic acid, sodium salt] came in with a melting point of more than 250 °C.

Usually melting point stands for the temperature of the solid-liquid transition.
